Measured values as given in PubChem BioAssay AID208 (DTP/NCI, 2004).
Records with an inconclusive call do not appear.

System: HT29 intrarenal xenograft, nude mice, tumor weight change
Assay: NCI In Vivo Anticancer Drug Screen. Data for tumor model HT29;CX-1 Human Adenocarcinoma (MER+) (intrarenal inoculation) in NU/NU BALB/C (nude) mice
Settings: endpoint: mean tumor weight change, higher = larger tumour
Description: The antitumor activity of compounds was measured in mice bearing transplantable tumors. Survival or tumor size were measured and the results are expressed as the measurement made in the treated group (T) divided by the measurement made in the vehicle treated control group (C). The tumor model used in this assay is HT29;CX-1 Human Adenocarcinoma (MER+) (intrarenal inoculation) in NU/NU BALB/C (nude) mice

[1] = dose: 100.0 mg/kg/injection, schedule: Q04DX004 (sc), vehicle: saline with Tween-80
[2] = dose: 1.25 mg/kg/injection, schedule: Q04DX004 (sc), vehicle: saline
[3] = dose: 2.5 mg/kg/injection, schedule: Q04DX004 (sc), vehicle: saline

Structure (SMILES): O=C(Nc1cc(Cl)ccc1C(=O)O)c1cccc(C[n+]2ccccc2)c1
- T/C (dose: 150.0 mg/kg/injection, schedule: Q04DX004 (ip), vehicle: saline with Tween-80): 100 % of control
- T/C (dose: 300.0 mg/kg/injection, schedule: Q04DX004 (ip), vehicle: saline with Tween-80): 123 % of control

Structure (SMILES): CC(C)CC(NC(=O)CF)C(=O)O (stereo not drawn)
- T/C (dose: 10.0 mg/kg/injection, schedule: Q04DX004 (sc), vehicle: saline): 87 % of control
- T/C (dose: 20.0 mg/kg/injection, schedule: Q04DX004 (sc), vehicle: saline): 157 % of control

Structure (SMILES): CC12CCC3C(CCC4CC(OC(=O)Cc5ccc(N(CCCl)CCCl)cc5)CCC43C)C1CCC(=O)N2 (stereo not drawn)
- T/C (dose: 12.5 mg/kg/injection, schedule: Q04DX004 (sc), vehicle: saline with Tween-80): 99 % of control
- T/C (dose: 25.0 mg/kg/injection, schedule: Q04DX004 (sc), vehicle: saline with Tween-80): 109 % of control
- T/C (dose: 50.0 mg/kg/injection, schedule: Q04DX004 (sc), vehicle: saline with Tween-80): 77 % of control
- T/C [1]: 38 % of control

Structure (SMILES): CNC(=O)ON(C(C)=O)C(=O)NC
- T/C (dose: 25.0 mg/kg/injection, schedule: Q04DX004 (sc), vehicle: saline): 114 % of control
- T/C (dose: 50.0 mg/kg/injection, schedule: Q04DX004 (sc), vehicle: saline): 80 % of control
- T/C (dose: 100.0 mg/kg/injection, schedule: Q04DX004 (sc), vehicle: saline): 56 % of control

Structure (SMILES): O=S(CCCl)CCCl
- T/C (dose: 25.0 mg/kg/injection, schedule: Q04DX004 (sc), vehicle: Klucel (hydroxypropylcellulose) (HPC)): 98 % of control
- T/C (dose: 50.0 mg/kg/injection, schedule: Q04DX004 (sc), vehicle: Klucel (hydroxypropylcellulose) (HPC)): 64 % of control

Structure (SMILES): COC1C(C)OC(OC2CC(C)(O)Cc3cc4c(c(O)c32)C(=O)c2c(O)cc3c(c2C4=O)OC2OC3(C)C(O)C(N(C)C)C2O)C(OC)C1(C)OC (stereo not drawn)
- T/C (dose: 20.0 mg/kg/injection, schedule: Q04DX004 (sc), vehicle: Klucel (hydroxypropylcellulose) (HPC)): 74 % of control
- T/C (dose: 40.0 mg/kg/injection, schedule: Q04DX004 (sc), vehicle: Klucel (hydroxypropylcellulose) (HPC)): 49 % of control

Structure (SMILES): Cc1ccc(S(=O)(=O)N/N=C/C(Br)=C(/Br)C(=O)O)cc1
- T/C [2]: 103 % of control
- T/C [3]: 78 % of control
- T/C (dose: 5.0 mg/kg/injection, schedule: Q04DX004 (sc), vehicle: saline): 105 % of control

Structure (SMILES): C[C@@H]1CC[C@]2(C)CC[C@]3(C)C(=CC[C@@H]4[C@@]5(C)CC[C@@H](OC(=O)c6ccc(O)cc6)C(C)(C)[C@@H]5C[C@H](O)[C@]43C)[C@@H]2[C@H]1C(=O)O
- T/C (dose: 0.62 mg/kg/injection, schedule: Q04DX004 (sc), vehicle: saline with Tween-80): 79 % of control
- T/C (dose: 1.25 mg/kg/injection, schedule: Q04DX004 (sc), vehicle: saline with Tween-80): 109 % of control
- T/C (dose: 2.5 mg/kg/injection, schedule: Q04DX004 (sc), vehicle: saline with Tween-80): 59 % of control

Structure (SMILES): COc1nc(=O)n(C2C=CC(=O)O2)cc1F (stereo not drawn)
- T/C (dose: 75.0 mg/kg/injection, schedule: Q04DX004 (sc), vehicle: suspension in saline): 52 % of control
- T/C (dose: 150.0 mg/kg/injection, schedule: Q04DX004 (sc), vehicle: suspension in saline): 122 % of control

Structure (SMILES): COC1/C=C/C=C(/C)Cc2cc(O)c(Cl)c(c2)N(C)C(=O)CC(OC(=O)C(C)C)C2(C)OC2C(C)C2CC1(O)NC(=O)O2 (stereo not drawn)
- T/C (dose: 2.0 mg/kg/injection, schedule: Q04DX004 (sc), vehicle: saline + alcohol): 82 % of control
- T/C (dose: 4.0 mg/kg/injection, schedule: Q04DX004 (sc), vehicle: saline + alcohol): 98 % of control
- T/C (dose: 8.0 mg/kg/injection, schedule: Q04DX004 (sc), vehicle: saline + alcohol): 72 % of control

Structure (SMILES): CCc1ccc(C2=C(O)C(=O)C(c3ccc(CC)cc3)=C(O)C2=O)cc1
- T/C [1]: 112 % of control
- T/C (dose: 200.0 mg/kg/injection, schedule: Q04DX004 (sc), vehicle: saline with Tween-80): 91 % of control
- T/C (dose: 400.0 mg/kg/injection, schedule: Q04DX004 (sc), vehicle: saline with Tween-80): 102 % of control

Structure (SMILES): COC(=O)C[C@](O)(CCC(C)(C)O)C(=O)O[C@@H]1C(OC)=C[C@]23CCCN2CCc2cc4c(cc2[C@H]13)OCO4
- T/C (dose: 0.31 mg/kg/injection, schedule: Q04DX004 (sc), vehicle: saline): 68 % of control
- T/C (dose: 0.63 mg/kg/injection, schedule: Q04DX004 (sc), vehicle: saline): 84 % of control
- T/C [2]: 103 % of control
- T/C [3]: 86 % of control
